Patent US20220033407A1, “N-(pyridin-2-ylsulfonyl)cyclopropanecarboxamide Derivatives and their Use in the Treatment of Disease” (NOVARTIS AG, priority 2018, published 2022)

Columns and labels:
delF508-CFTR-HRP = target: T1, delF508-CFTR-HRP (Homo sapiens, UniProt P13569, DEL508-508); experiment: Measurement of delF508-CFTR-HRP surface expression in CFBE41o- cells (HRP luminescence); format: cell-based; settings: for Emax: CFBE41o-, read-out: DelF508-CFTR-HRP Amax %; for EC50: mean of at least two replicates;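 on DelF508-CFTR-HRP Amax %: percent efficacy relative to a reference CFTR corrector compound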
T1 construct: expressed in transfected cells
T1 sequence (P13569 with tags, fused parts or gaps DEL508-508): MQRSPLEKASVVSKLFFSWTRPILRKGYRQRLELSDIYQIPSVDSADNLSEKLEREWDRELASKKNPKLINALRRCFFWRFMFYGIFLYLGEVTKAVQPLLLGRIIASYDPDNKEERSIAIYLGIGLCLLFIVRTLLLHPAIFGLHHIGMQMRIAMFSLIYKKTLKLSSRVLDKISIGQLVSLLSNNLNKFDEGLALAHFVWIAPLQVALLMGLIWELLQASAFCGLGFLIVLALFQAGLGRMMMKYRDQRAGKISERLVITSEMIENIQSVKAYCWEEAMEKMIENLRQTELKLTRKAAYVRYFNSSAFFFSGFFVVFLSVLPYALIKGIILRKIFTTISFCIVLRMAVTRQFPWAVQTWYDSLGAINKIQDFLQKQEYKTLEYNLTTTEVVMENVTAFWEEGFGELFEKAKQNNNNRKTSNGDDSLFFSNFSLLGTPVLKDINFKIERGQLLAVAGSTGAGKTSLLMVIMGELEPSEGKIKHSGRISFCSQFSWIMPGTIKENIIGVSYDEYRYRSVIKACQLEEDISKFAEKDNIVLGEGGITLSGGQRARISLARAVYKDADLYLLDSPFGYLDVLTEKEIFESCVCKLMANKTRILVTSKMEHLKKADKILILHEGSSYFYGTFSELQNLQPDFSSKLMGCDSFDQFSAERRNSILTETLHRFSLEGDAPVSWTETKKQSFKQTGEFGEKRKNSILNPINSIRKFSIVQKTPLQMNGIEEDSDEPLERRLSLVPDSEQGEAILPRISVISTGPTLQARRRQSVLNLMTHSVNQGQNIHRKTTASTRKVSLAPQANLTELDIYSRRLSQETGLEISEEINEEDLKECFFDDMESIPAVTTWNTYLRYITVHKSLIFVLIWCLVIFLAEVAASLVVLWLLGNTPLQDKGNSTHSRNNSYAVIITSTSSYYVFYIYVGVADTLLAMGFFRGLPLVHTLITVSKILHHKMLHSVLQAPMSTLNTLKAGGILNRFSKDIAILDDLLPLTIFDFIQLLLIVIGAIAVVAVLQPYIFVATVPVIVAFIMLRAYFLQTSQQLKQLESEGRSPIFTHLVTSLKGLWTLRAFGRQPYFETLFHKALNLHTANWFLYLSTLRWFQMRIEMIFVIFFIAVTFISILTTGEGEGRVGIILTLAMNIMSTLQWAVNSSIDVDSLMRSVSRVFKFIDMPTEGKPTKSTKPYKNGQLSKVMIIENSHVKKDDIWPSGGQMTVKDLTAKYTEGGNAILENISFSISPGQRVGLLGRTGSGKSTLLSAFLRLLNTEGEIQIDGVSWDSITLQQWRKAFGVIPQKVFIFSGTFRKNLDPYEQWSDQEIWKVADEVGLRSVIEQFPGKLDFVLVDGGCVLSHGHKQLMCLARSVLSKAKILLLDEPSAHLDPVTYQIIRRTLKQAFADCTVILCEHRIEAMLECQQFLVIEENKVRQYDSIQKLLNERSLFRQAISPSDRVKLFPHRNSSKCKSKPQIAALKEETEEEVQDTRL
Method in brief: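 EC50 derived by logistic regression of triplicate surface-HRP luminescence, plate-normalized to the lowest-concentration median. Doxycycline (500 ng/mL, 48 h) induced delF508-CFTR-HRP in CFBE41o- cells; compounds then applied 24 h at 37° C, 10 μM top, 3-fold over 10 points.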

delF508-CFTR = target: T2, delF508-CFTR (Homo sapiens, UniProt P13569, DEL508-508); experiment: delF508-CFTR functional activity in primary human bronchial epithelial cells (HBECs), Multi-Transepithelial Clamp Circuit (MTECC-24) assay, equivalent short circuit current; format: cell-based; settings: primary CF HBECs; for MTECC24 CFHBEC-Amax %: relative to reference combination 2 μM 3-(6-(1-(2,2-difluorobenzo[d][1,3]dioxol-5-yl)cyclopropane-1-carboxamido)-3-methylpyridin-2-yl)benzoic acid (24 h) + 0.5 μM N-(2,4-di-tert-butyl-5-hydroxyphenyl)-4-oxo-1,4-dihydroquinoline-3-carboxamide; for EC50: test compound added 24 h before assay, potentiator (S)-3-amino-6-methoxy-N-(3,3,3-trifluoro-2-hydroxy-2-methylpropyl)-5-(trifluoromethyl)picolinamide present at assay, mean of at least two replicates, read-out: MTECC24 CFHBEC-EC50
T2 construct: functional activity of the CFTR channel (Chloride ion transport) in patient derived primary human bronchial epithelial cells; host or cells: patient-derived primary human bronchial epithelial cells (HBECs), delF508-CFTR
T2 sequence (P13569 with tags, fused parts or gaps DEL508-508): as above
Text: Measurement of delF508-CFTR Functional Activity in Primary Human Bronchial Epithelial Cells (HBECs) Using Multi-Transepithelial Clamp Circuit (MTECC-24) Assay
This assay measures the functional activity of the CFTR channel (Chloride ion transport) in patient derived primary human bronchial epithelial cells with forskolin activation and in the presence of the CFTR corrector wherein the corrector is a compound of the invention and the potentiator is (S)-3-amino-6-methoxy-N-(3,3,3-trifluoro-2-hydroxy-2-methylpropyl)-5-(trifluoromethyl)picolinamide.
Primary human delF508-CFTR bronchial epithelial cells were purchased from Asterand and cultured according to previously established methods (Fulcher et al. (2005) Methods Mol Med 107: 183-206). Briefly, vendor supplied cells were rapidly defrosted and added to a T175 flask in 50 mL growth media (Lonza BEBM media with Lonza BEGM singlequots). Media was replaced after 24 h and then cells were fed every other day until cells were 80-90% confluent, at which point cells were cryopreserved. These P1 vials were thawed at 37° C. as needed and added to T175 flasks in 50 mL growth media at 5×10^5 cells/flask. Media was replaced after 24 h, and then cells were fed every other day until 80-90% confluent. Cells were lifted with 5 mL Accutase at 37° C. for 5 minutes, centrifuged at 1000 rpms for 5 min (300 g), and resuspended in differentiation media (50% BEBM in DMEM, BEGM singlequots, all trans retinoic acid (5×10·8M)). Cells were then counted and cell suspension was added to collagen coated inserts at 3×10^4 cells/insert in 0.15 mL with 0.5 mL differentiation media on the basolateral side.
Apical and basolateral media were replaced on alternate days, and following day 7 (or when confluent plus 2 days), air liquid interface was established for approximately two weeks by removal of apical media. One day prior to use on the MTECC24 system (EP-Devices, EP Design, Belgium), 0.15 mL of warmed (37° C.) PBS was added to the apical surface of the cultures and returned to humidifier (37° C., 5% CO2 incubator) for 30 min before aspirating the apical surface to remove any mucus.
Compound treatments were then prepared. Compound dilutions, typically a 10 point concentration response with 1 in 3 dilution steps, were made in 100% DMSO before dilution 1 in 1000 into differentiation medium with a final DMSO concentration of 0.1% or 0.2% for the study. Compound containing medium was then transferred into the wells of a 24 well plate at 0.5 mL per well and warmed for 30 min in a 37° C. incubator prior to transferring washed inserts into the compound containing plates. Cells were incubated in compound containing medium (basolateral only) for 24 h prior to measurement in the MTECC24 system.
Following 24 hr treatment, compound dilutions were prepared again, diluted 1 in 1000 into 37° C. assay medium (F-12 Coon's modified, 20 mM HEPES pH7.4 with TRIS Base, No FCS or bicarbonate). Cells which were treated for 24 h with test compound were then transferred into plates containing 0.75 mL compound treatment in assay medium (basolateral) and 0.25 mL of the compound containing assay medium was added to the apical surface. The plates were then transferred to the heated plate compartments of the MTECC24 system for 45 min prior to measurements (this can also be done in a non-CO2 37° C. humidified incubator). Basolateral temperature should not exceed 36.5° C. and apical temperature should be approximately 35.5° C.
Modulators were added sequentially as follows while the MTECC24 instrument recorded the equivalent short circuit current (Ieq)
Prior to dilution into F-12 medium the stocks are as follows: Amiloride stock is 10 mM in H2O
Forskolin Stock is 10 mM in 100% DMSO
(S)-3-amino-6-methoxy-N-(3,3,3-trifluoro-2-hydroxy-2-methylpropyl)-5-(trifluoromethyl)picolinamide is 0.5 mM stock in 100% DMSO INH-172 (4-[[4-Oxo-2-thioxo-3-[3-trifluoromethyl)phenyl]-5-thiazolidinylidene]methyl]benzoic acid) stock is 30 mM in 100% DMSO […]

| Compound | Emax (delF508-CFTR-HRP) | EC50 (delF508-CFTR-HRP) | MTECC24 CFHBEC-Amax % (delF508-CFTR) | EC50 (delF508-CFTR) | DelF508-CFTR-HRP Amax % (delF508-CFTR-HRP) |
| --- | --- | --- | --- | --- | --- |
| Cc1ccc(C2CCCCC2)c(OC2(C(=O)NS(=O)(=O)c3cccc(N4CC5(CCN5C(=O)OC(C)(C)C)C4)n3)CC2)c1 [Example 2-30, Tert-butyl 6-(6-(N-(1-(2-cyclohexyl-5-methylphenoxy)cyclopropanecarbonyl)sulfamoyl)pyridin-2-yl)-1,6-diazaspiro[3.3]heptane-1-carboxylate] | 243% | 1790 nM | 69% | 23 nM |  |
| Cc1ccc(C2CCCCC2)c(OC2(C(=O)NS(=O)(=O)c3cccc(N(C)C)n3)CC2)c1 [Example 2-25, 1-(2-Cyclohexyl-5-methylphenoxy)-N-((6-(dimethylamino)pyridin-2-yl)sulfonyl)cyclopropanecarboxamide] | 661% | 1440 nM | 89% | 1 nM |  |
| Cc1ccc(C2CCCCC2)c(OC2(C(=O)NS(=O)(=O)c3cccc(N4CC5(CCN5)C4)n3)CC2)c1 [Example 2-21, N-((6-(1,6-Diazaspiro[3.3]heptan-6-yl)pyridin-2-yl)sulfonyl)-1-(2-cyclohexyl-5-methylphenoxy)cyclopropanecarboxamide] | 252% | 3390 nM | 99% | 93 nM |  |
| Cc1ccc(C2CCCCC2)c(OC2(C(=O)NS(=O)(=O)c3cccc(N4CCC(C)(N)C4)n3)CC2)c1 (centres unmarked) [Example 2-27, N-((6-(3-Amino-3-methylpyrrolidin-1-yl)pyridin-2-yl)sulfonyl)-1-(2-cyclohexyl-5-methylphenoxy)cyclopropanecarboxamide] | 181% | 2580 nM | 104% | 70 nM |  |
| CC1(C)CCN(c2ccc(Cl)cc2OC2(C(=O)NS(=O)(=O)c3cccc(N4CC[C@H](O)C4)n3)CC2)CC1 [Example 8-1, (S)-1-(5-Chloro-2-(4,4-dimethylpiperidin-1-yl)phenoxy)-N-((6-(3-hydroxypyrrolidin-1-yl)pyridin-2-yl)sulfonyl)cyclopropane-1-carboxamide] |  | 1740 nM | 197.2% | 373 nM |  |
| COC(=O)C1(C)CCN(c2cccc(S(=O)(=O)NC(=O)C3(Oc4cc(C)ccc4C4CCCCC4)CC3)n2)CC1 [Example 2-3, Methyl 1-(6-(N-(1-(2-cyclohexyl-5-methylphenoxy)cyclopropanecarbonyl)sulfamoyl)pyridin-2-yl)-4-methylpiperidine-4-carboxylate] | 337% | 460 nM | 79% | 5 nM |  |

Second part, the compound after the results:

| Emax (delF508-CFTR-HRP) | EC50 (delF508-CFTR-HRP) | MTECC24 CFHBEC-Amax % (delF508-CFTR) | EC50 (delF508-CFTR) | DelF508-CFTR-HRP Amax % (delF508-CFTR-HRP) | Compound |
| --- | --- | --- | --- | --- | --- |
| 235% | 2420 nM | 76% | 108 nM |  | Cc1ccc(C2CCCCC2)c(OC2(C(=O)NS(=O)(=O)c3cccc(N[C@H]4C[C@H](O)C4)n3)CC2)c1 [Example 2-35, 1-(2-Cyclohexyl-5-methylphenoxy)-N-((6-((trans-3-hydroxycyclobutyl)amino)pyridin-2-yl)sulfonyl)cyclopropane-1-carboxamide] |
|  | 2760 nM | 78% | 10 nM | 614% | Cc1ccc(C2CCC(F)(F)CC2)c(OC2(C(=O)NS(=O)(=O)c3cccc(N4CCCC(CO)C4)n3)CC2)c1 (single isomer, unassigned) [Example 3-3-2, 1-(2-(4,4-Difluorocyclohexyl)-5-methylphenoxy)-N-((6-(3-(hydroxymethyl)piperidin-1-yl)pyridin-2-yl)sulfonyl)cyclopropane-1-carboxamide] |
| 371% | 2180 nM | 68% | 20 nM |  | Cc1ccc(-c2cccc(C(F)(F)F)c2)c(OC2(C(=O)NS(=O)(=O)c3cccc(N4CC[C@@H](O)C4)n3)CC2)c1 [Example 5-11, (R)—N-((6-(3-Hydroxypyrrolidin-1-yl)pyridin-2-yl)sulfonyl)-1-((4-methyl-3′-(trifluoromethyl)-[1,1′-biphenyl]-2-yl)oxy)cyclopropane-1-carboxamide] |
| 367% | 1670 nM | 115.5% | 356 nM |  | CC1(O)CN(c2cccc(S(=O)(=O)NC(=O)C3(Oc4cc(Cl)ccc4C4CC5(CCC5)C4)CC3)n2)C1 [Example 7-10, 1-(5-Chloro-2-(spiro[3.3]heptan-2-yl)phenoxy)-N-((6-(3-hydroxy-3-methylazetidin-1-yl)pyridin-2-yl)sulfonyl)cyclopropane-1-carboxamide] |
|  | 1780 nM | 100.3% | 757 nM | 361.4% | Cc1ccc(C2CCC(C)(C)OC2)c(OC2(C(=O)NS(=O)(=O)c3cccc(N4CCC(O)(C(F)(F)F)CC4)n3)CC2)c1 (single isomer, unassigned) [Example 11-2-2, 1-(2-(6,6-Dimethyltetrahydro-2H-pyran-3-yl)-5-methylphenoxy)-N-((6-(4-hydroxy-4-(trifluoromethyl)piperidin-1-yl)pyridin-2-yl)sulfonyl)cyclopropane-1-carboxamide] |
| 418% | 1920 nM | 82% | 51 nM |  | O=C(NS(=O)(=O)c1cccc(N2CC(O)C2)n1)C1(Oc2cc(Cl)ccc2C2CCC3(CC2)CC3)CC1 [Example 4-12, 1-(5-Chloro-2-(spiro[2.5]octan-6-yl)phenoxy)-N-((6-(3-hydroxyazetidin-1-yl)pyridin-2-yl)sulfonyl)cyclopropane-1-carboxamide] |
| 306% | 1350 nM | 103% | 3 nM |  | Cc1ccc(C2CCCCC2)c(OC2(C(=O)NS(=O)(=O)c3cccc(N4CCNC(C(F)(F)F)C4)n3)CC2)c1 (centres unmarked) [Example 2-37, 1-(2-Cyclohexyl-5-methylphenoxy)-N-((6-(3-(trifluoromethyl)piperazin-1-yl)pyridin-2-yl)sulfonyl)cyclopropanecarboxamide] |
| 119% | 3650 nM | 57% | 109 nM |  | Cc1ccc(C2CC2)c(OC2(C(=O)NS(=O)(=O)c3cccc(NC[C@H](C)O)n3)CC2)c1 [Example 4-14, (S)-1-(2-Cyclopropyl-5-methylphenoxy)-N-((6-((2-hydroxypropyl)amino)pyridin-2-yl)sulfonyl)cyclopropane-1-carboxamide] |
| 96% | 3250 nM | 89% | 421 nM |  | Cc1ccc(C2CCCCC2)c(OC2(C(=O)NS(=O)(=O)c3cccc(N4CCNCC4)n3)CC2)c1 [Example 2-31, 1-(2-Cyclohexyl-5-methylphenoxy)-N-((6-(piperazin-1-yl)pyridin-2-yl)sulfonyl)cyclopropanecarboxamide] |
